Results as given in US20220125753A1, “COMPOSITIONS AND METHODS FOR TREATING ISCHEMIC STROKE” (The General Hospital Corporation, priority 2015, published 2022).
“Also recorded” adds a separate entry of the source. Read-outs that look alike come from different tables or passages of the source.

Assays:
microglial cells = assay: Microglia culture incubated with synthetic Aß40 or Aß42, Aß ELISA of media; format: cell-based; settings: 0.10 nM, 10 μM or 1 mM Cromolyn Sodium, 16 hours
Protocol: After the incubation, the concentrations of […]-42 (right panel) in media were measured using Aß ELISA and normalized with microglia cell number and according to the PBS control condition. (n=3 experiments; *, P<0.05, **, P<0.01)

APP/PS1 mice [1] = assay: Immunostaining of Aß and microglial marker Iba1 in brain sections; format: in vivo; settings: 3.15 mg/kg daily for seven days vs PBS
APP/PS1 mice [2] = assay: Short-term treatment of APP/PS1 mice, TBS soluble Aß in brain (ELISA, immunoblotting); format: in vivo; settings: after 1 week of peripherally administered cromolyn sodium (intraperitoneally daily), 7.5 months old APP/PS1 mice
Protocol: One week after daily injection, tris-buffered saline (TBS) soluble Aßx-40 (left graph) and Aßx-42 (right graph) were measured under the condition with (black bar) or without (white bar) pre-incubation with guanidine (Gdn)-HCl using Aß ELISA. The value under the incubation with Gdn-HCl show the concentration of total TBS soluble Aß, and the value under the no incubation with Gdn-HCl show the concentration of monomeric Aß. FIG. 5B: oligomeric Aß in TBS soluble brain extracts were measured using 82E1/82E1 Aß oligomer specific ELISA. FIG. 5C illustrates representative immunoblotting of TBS soluble brain extracts with anti-Aß antibody (6E10 and 82E1) (left panel). The densitometry of monomeric Aß was quantified (right graph). (n=3-5/group; *, P<0.05, **, P<0.01).

[3] = for maximum plasma concentration / time of maximum plasma concentration: mean ± spread
clinical = settings: human, in vivo, inhaled or intranasal, AUC (plasma)
Aß amyloid peptide [4] = assay: In vitro assays of Aß amyloid peptide polymerization into oligomers and aggregates; format: biochemical; settings: at nanomolar concentrations
Protocol: One of the most routinely used approaches to monitor Aβ polymerization is the thioflavin T binding assay (Elmaleh, 2014; Hori, 2015). […] AO peptide at 5 μM was mixed with 10 μM thioflavin T with drug at different concentrations.
Fibrillization of synthetic Aß40 (left column) or Aß42 (right column) peptides was followed over 1 hour.

Aß amyloid peptide [5] = settings: at nanomolar concentrations; laboratory testing (Hori 2015; Elmaleh 2014); cited from earlier work
[6] = cited from earlier work
[7] = system: transient middle cerebral artery occlusion; settings: adult rats; intracerebral injection; cited from earlier work
[8] = system: hemorrhage formation after tPa treatment; settings: adult rats; intracerebral injection; cited from earlier work
[9] = system: experimental cerebral ischemia/reperfusion; settings: cited from earlier work
[10] = system: unilateral hypoxia-ischemia in neonatal rats; settings: given at the end of the hypoxic period, assessed at 48 hours; cited from earlier work
[11] = 34.2 mg double inhaled dose, range

O=C(O)c1cc(=O)c2c(OCC(O)COc3cccc4oc(C(=O)O)cc(=O)c34)cccc2o1 [cromolyn sodium]
Aß40 levels in media of microglia culture (microglial cells; 50 nM synthetic Aß40): dose-dependent decrease
Aß42 levels in media of microglia culture (microglial cells; 50 nM synthetic Aß42): dose-dependent decrease
percentage of Iba1 immunoreactivity overlapping with amyloid (APP/PS1 mice [1]): higher percentage
percentage of Iba1 immunoreactivity overlapping with amyloid (APP/PS1 mice [1]; listed as Cromolyn Sodium): increased overlap
decrease of total soluble Aβ levels (APP/PS1 mice [2]): over 50%

O=C([O-])c1cc(=O)c2c(OCC(O)COc3cccc4oc(C(=O)[O-])cc(=O)c34)cccc2o1.[Na+].[Na+] [Cromolyn]
maximum plasma concentration ([3]; 17.1 mg single inhaled dose, healthy volunteers): 47.1 ± 33.6 ng/mL
time of maximum plasma concentration ([3]; 17.1 mg single inhaled dose): 23.3 ± 16.9 min
time of maximum plasma concentration, range ([3]; 17.1 mg single inhaled dose, range): 5 to 60 min
maximum plasma concentration, range ([3]; 17.1 mg single inhaled dose, range over subjects): 14.0 to 133 ng/mL
maximum plasma concentration ([3]; 34.2 mg double inhaled dose): 95.0 ± 45.5 ng/mL
time of maximum plasma concentration ([3]; 34.2 mg double inhaled dose): 22.2 ± 19.4 min
maximum plasma concentration, range [3, 11]: 36.1 to 236 ng/mL
time of maximum plasma concentration, range [3, 11]: 5 to 60 min
AUC (clinical; 17.1 mg, 17.1 mg single dose inhalation, mean ± spread): 148 ± 67.1 ng·h/mL
AUC (clinical; 17.1 mg, range, 17.1 mg single dose inhalation): 44.7 to 287 ng·h/mL
AUC (clinical; 34.2 mg, 34.2 mg double dose inhalation, mean ± spread): 254 ± 93.8 ng·h/mL
AUC (clinical; 34.2 mg, range, 34.2 mg double dose inhalation): 122 to 443 ng·h/mL
inhibition of Aß aggregation / polymerization into oligomers and higher order aggregates (Aß amyloid peptide [4]): inhibition; also recorded: effectively inhibits
binding to and inhibition of amyloid β (Aβ) peptide oligomerization (Aß amyloid peptide [5]): bind to and inhibit
variability of plasma levels following inhalation [6]: high intraand inter-subject variability
cromolyn uptake by asthmatics ([6]; inhalation, compared with healthy volunteers): lower than by healthy volunteers
neutrophil accumulation [7]: reduced
hemorrhage formation after tPa treatment [8]: inhibited
survival of experimental animals [9]: improved survival
glial activation [10]: limited
mast cell migration/degranulation [10]: limited
neuronal loss [10]: limited
